The source of these data is patent US20170354592A1 (ASCENDIA PHARMACEUTICALS, LLC, priority 2016, published 2017).

One data set has as its system β-adrenoceptor. The settings on record: cited from earlier work; for potency as a β-adrenoceptor antagonist versus Carvedilol: relative to carvedilol, Hoffman (2001), Tenero et al (2000).
The nature of data set [1]: Single IV injection of carvedilol liposomes and free-carvedilol solution, plasma PK. The settings on record: rats, single iv 2.5 mg/kg. The protocol: (§1) 15 cannulated and non-cannulated, 9 and 6 rats respectively, Sprague-Dawley® male rats were divided into 3 groups. […] Treatment was administered intravenously. During the experiment, rats were inspected twice daily for vitality and as needed after dosing and intermittently and vitals, including blood pressure, heart rate, and temperature, were recorded from the non-cannulated animals. Main vital signs were monitored prior to and at multiple time points after dose administration. Blood pressure and heart rate were measured using a non-invasive tail cuff system after a brief acclimation period. Blood samples (approximately 300-325 μL each) were collected from cannulated rats at each time point into tubes containing K2EDTA.
(§2) Following centrifugation at 4° C., the plasma was collected and stored at −80° C. The blood sampling time points were as follows: prior to (PRE) and approximately 0.25, 0.5, 1, 2, 3, 8, 10 and 24 hours after dose administration. Samples were collected via Jugular Vein Cannulas.

Data set [2] is described as follows: Vital signs and adverse reactions after IV dose (non-invasive tail cuff). The settings on record: rats iv 2.5 mg/kg. The protocol:
as §1, §2

For data set [3] the following is noted: cited from earlier work.

As to `COc1cc(O)ccc1OCCNCC(O)COc1cccc2[nH]c3ccccc3c12` (stereo not shown) [4-hydroxyphenyl-carvedilol], the “potency in β-blockade versus the parent compound” value in the data set with β-adrenoceptor (more potent than carvedilol) was “about 13 fold”. Moreover, the “potency as a β-adrenoceptor antagonist versus Carvedilol” value in the data set on β-adrenoceptor is given as “about 13 times”.

On to `COc1ccc(O)cc1OCCNCC(O)COc1cccc2[nH]c3ccccc3c12` (stereo not shown) [5-hydroxyphenyl-carvedilol], for which, in the data set on β-adrenoceptor, the “potency as a β-adrenoceptor antagonist versus Carvedilol” value was “one-half”.

Regarding `Oc1ccccc1OCCNCC(O)COc1cccc2[nH]c3ccccc3c12` (stereo not shown) [desmethylcarvedilol], in the data set with β-adrenoceptor, the “potency as a β-adrenoceptor antagonist versus Carvedilol” value is listed as “approximately 2.5 times”.

Broadly, the Cmax is the peak of the concentration-time curve. The term Tmax denotes the time from dosing to the highest level. The term Vss denotes a proportionality between amount in the body and measured concentration, not a real space. What is called pKa is the pH at which an ionisable group is half protonated. Consider “(±)-[3-(9H-carbazol-4-yloxy)-2-hydroxypropyl][2-(2-ethoxyphenoxy)ethyl] amine [Carvedilol]”, for which, in data set [1] (FIG. 3), the “time after dose at which carvedilol was cleared from plasma” value stood at 3 h. Moreover, in data set [1] (mean), the “AUC(0-T)” value was 284 ng·h/mL, the “AUC(INF)” value amounted to 291 ng·h/mL, the CL is listed as 144.0 mL/min/kg and the Cmax is on record as 354 ng/mL. In data set [1] (mean), the T-HALF stood at 0.52 h, the Tmax was 15 min and the Vss amounted to 6.4 L/kg. Also, in data set [2] (1 Hour after dose), the Diastolic was found to be 40, the HR turned out to be 363 Beats/min, the MAP was found to be 69 and the Temp is 99 ° F. In data set [2] (15 min after dose), this compound registered a Diastolic of 48, an HR of 354 Beats/min, an MAP of 73 and a Temp of 98 ° F. Moreover, in data set [2] (30 min after dose), the Diastolic stood at 33, the HR turned out to be 360 Beats/min, the MAP is 60 and the Temp turned out to be 99 ° F. In addition, the pKa in data set [3] was 7.8.
